Results published in PubChem BioAssay AID588610 (The Scripps Research Institute Molecular Screening Center, 2011).

Molecular target: Epidermal growth factor receptor (Homo sapiens) (UniProt P00533)
Assay: altered EGFR protein amount in cells – DLD1 cells, chemiluminescent western blot, counter-screen for KLF5 inhibitor project, late-stage follow-up (AID 588610)
Conditions: DLD-1 cells, 24 h, at 10 µM; for fold change: measured here: EGFR band fold change vs DMSO; for inhibition of EGFR protein level: stronger effect = higher value

SMILES	fold change	inhibition of EGFR protein level [%]
CN(C(=O)CNC(=O)/C=C/c1cccc(Cl)c1)C1CCS(=O)(=O)C1 (stereo not given)	5.24	
CN(C(=O)COC(=O)/C=C/c1cccc([N+](=O)[O-])c1)C1CCS(=O)(=O)C1 (stereo not given)	3.54	-314
CN(C(=O)CNC(=O)/C=C/c1cccc(Cl)c1)C1CCS(=O)(=O)CC1	5.13	-478
